The target of experiment [1] is DENV serotype 2 NS2B-NS3 protease construct (Dengue virus serotype 2). Description: enzyme inhibition (percent inhibition of the cleavage of a fluorogenic substrate); DENV-2 NS2B-NS3pro ~39 nM in well; 100 µM inhibitor, 125 µM substrate Phac-Lys-Arg-Arg-AMC (KM = 60 µM); 100 mM Tris pH 8.5, 20% glycerol, 0.01% Triton X-100; room temperature.
For experiment [2], the target named is T1, WNV NS2B-NS3 protease (West Nile virus, UniProt P06935).
T1 construct: WNV NS2B 40-amino acid cofactor together with the NS3 protease domain
Description: Enzyme kinetic inhibition of WNV NS2B-NS3 protease construct (Dixon plot). The format is biochemical. The settings on record: for Ki: covalently linked WNV NS2B-NS3 construct, substrate Phac-Leu-Lys-Lys-Arg-AMC, Dixon plots, average of at least two measurements. Here is the method: (§1) All measurements were performed at room temperature in black flat-bottom 96-well plates (Nunc, Langenselbold, Germany) using microplate readers (Tecan Safire^2, λex = 380 nm and λem = 460 nm, Tecan Group Ltd., Männedorf, Switzerland or Fluoroskan Ascent type 374, λex = 355 nm and λem = 460 nm; Thermo Fisher Scientific, Vantaa, Finland). The assays with the flavivirus protease constructs were performed with 125 μl buffer (100 mM Tris pH 8.5 containing 20% glycerol, 0.01% Triton X-100, and the inhibitor), 50 μl substrate solution, and were started by addition of 25 μl enzyme solution (total assay volume 200 μl).
For measurements with the covalently linked WNV NS2B-NS3 protease construct (∼4 nM in assay) the substrate Phac-Leu-Lys-Lys-Arg-AMC ×3 TFA (50 µM, 100 µM and 200 µM in assay, KM = 47.5 µM) was used, as described previously.
(§2) The DENV serotype 2 NS2B-NS3 protease construct was prepared from an identical clone as described by D’Arcy et al.[26] The purification of the protease was carried out in a buffer with high ion-strength and low pH value, in the absence of glycerol (20 mM Bis-Tris, 500 mM NaCl, pH 6.3), in order to prevent autolysis of the enzyme. Purification was performed by using a 5 ml HisTrapTM FF column (GE Healthcare) and subsequently, a HiLoad 16/60 SuperdexTM 75 column (GE Healthcare). The assays with the DENV-2 NS2B-NS3^pr° (∼39 nM in well) were performed with the substrate Phac-Lys-Arg-Arg-AMC ×3 TFA (125 µM, 62.5 µM and 31.25 µM in assay, KM = 60 µM). All Ki values were obtained from Dixon plots[27] and are the average of at least two measurements. Due to the weak potency of most compounds against the DENV-2 NS2B-NS3 protease construct, only the percentage of inhibition at a constant inhibitor concentration of 100 µM in the presence of 125 µM substrate was determined.

For experiment [3], the target named is T2, DENV serotype 2 NS2B-NS3 protease (Dengue virus type 2, UniProt P14340).
T2 construct: The proteolytic activity of WNV and DENV is located in the N-terminal part of its NS3 protein; made in house
Description: Enzyme kinetic inhibition of DENV-2 NS2B-NS3 protease construct. The format is biochemical, Dengue virus serotype 2. The settings on record: 100 μM inhibitor in the presence of 125 μM substrate; read-out: % Inhib. (DENV). The protocol:
as §1, §2

Experiment [4] addresses T1, WNV NS2B-NS3 protease. Set-up: method as in PMID 23307694. To be noted: reference compounds available from previous studies; cited from earlier work.

A word on the % inhibition: it is the share of the control response that was lost under treatment. High values mean a response far below the control, low ones a response near the control.

Where “and” joins values, the source holds several entries; their conditions need not be identical. Equal entries are not always repeated. Where two headings read alike, the source gives them in different places. Peptide text beside a SMILES is read from it.

Turning to “4-(guanidinomethyl)-phenylacetyl-Lys-Lys-Arg-NH2 (peptide)”, the % inhibition at 100 μM inhibitor, 125 μM substrate in experiment [1] is 65%.

With `C[C@H](NC(=O)[C@H](CCCNC(=N)N)NC(=O)[C@H](CCCCN)NC(=O)[C@H](CCCCN)NC(=O)Cc1ccccc1)C(N)=O` [inhibitor 19] (HELM PEPTIDE1{[O=C(Cc1ccccc1)[*:2]].K.K.R.A.[am]}$$$$V2.0), on WNV NS2B-NS3 protease [2], the Ki turned out to be 25 µM. Moreover, in experiment [3], the inhibition at 100 µM stood at 5.6%.

For `N=C(N)NCCC[C@H](NC(=O)[C@H](CCCCN)NC(=O)[C@H](CCCCN)NC(=O)Cc1ccc(CNC(=N)N)cc1)C(N)=O` [inhibitor 38, 4-(guanidinomethyl)-phenylacetyl-Lys-Lys-Arg-NH2], on WNV NS2B-NS3 protease [2], the Ki came out at 0.11 µM. The inhibition at 100 µM in experiment [3] is 65%.

With `N=C(N)NCCC[C@H](NC(=O)[C@H](CCCCN)NC(=O)[C@H](CCCCN)NC(=O)Cc1cccc(CN)c1)C(N)=O` [inhibitor 36], on WNV NS2B-NS3 protease [2], the Ki was found to be 0.36 µM. Also, the inhibition at 100 µM in experiment [3] was 12.4%.

Turning to `N=C(N)NCCC[C@H](NC(=O)[C@H](CCCCN)NC(=O)[C@H](CCCCN)NC(=O)Cc1ccc(-c2ccccc2)cc1)C(N)=O` [inhibitor 34], at WNV NS2B-NS3 protease [2], the Ki is 0.53 µM. Moreover, the inhibition at 100 µM in experiment [3] was determined as 27.1%.

Regarding `N=C(N)NCCC[C@H](NC(=O)[C@H](CCCCN)NC(=O)[C@H](CCCCN)NC(=O)Cc1ccccc1)C(=O)NCC(=O)NCC(N)=O` [inhibitor 17] (HELM PEPTIDE1{[O=C(Cc1ccccc1)[*:2]].K.K.R.G.G.[am]}$$$$V2.0), the Ki at WNV NS2B-NS3 protease [2] came to 1.56 µM. In addition, the inhibition at 100 µM in experiment [3] was found to be 35.1%.

Turning to `CC(C)(C)[C@H](NC(=O)[C@H](CCCNC(=N)N)NC(=O)[C@H](CCCCN)NC(=O)[C@H](CCCCN)NC(=O)Cc1ccccc1)C(N)=O` [inhibitor 22] (HELM PEPTIDE1{[O=C(Cc1ccccc1)[*:2]].K.K.R.[CC(C)(C)[C@H](N[*:1])C(=O)[*:2]].[am]}$$$$V2.0), on WNV NS2B-NS3 protease [2], the Ki worked out at 140 µM. The inhibition at 100 µM in experiment [3] came out at 6.4%.

In turn, `N=C(N)NCCC[C@H](NC(=O)[C@H](CCCCN)NC(=O)[C@H](CCCCN)NC(=O)Cc1ccc(CN)cc1)C(N)=O` [inhibitor 35] displayed a Ki on WNV NS2B-NS3 protease [2] of 0.38 µM. Further, the inhibition at 100 µM in experiment [3] was 31.7%.

For the compound `N=C(N)NCCCCNC(=O)C(CCCCN)NC(=O)C(CCCCN)NC(=O)Cc1ccc(Cl)c(Cl)c1` (stereo not drawn) [3,4-di-Cl-Phac-Lys-Lys-agmatine], the Ki on WNV NS2B-NS3 protease [4] was 0.4 µM.

Turning to `N=C(N)NC1CCC(CNC(=O)C(CCCCN)NC(=O)C(Cc2ccc(CN)cc2)NC(=O)Cc2ccccc2)CC1` (stereo not drawn) [inhibitor 3, Phac-Phe(4-AMe)-Lys-GCMA], the “fold reduced potency against WNV protease” value at WNV NS2B-NS3 protease [2] (compared with reference inhibitor 2) was 4 fold. On WNV NS2B-NS3 protease [2], the Ki was 4.7 µM and 4.71 µM. Moreover, the inhibition at 100 µM in experiment [3] turned out to be 12.4%.

`CC(C)[C@H](NC(=O)[C@H](CCCNC(=N)N)NC(=O)[C@H](CCCCN)NC(=O)[C@H](CCCCN)NC(=O)Cc1ccccc1)C(N)=O` [inhibitor 21] (HELM PEPTIDE1{[O=C(Cc1ccccc1)[*:2]].K.K.R.V.[am]}$$$$V2.0) returned a Ki on WNV NS2B-NS3 protease [2] of 105 µM. The inhibition at 100 µM in experiment [3] worked out at 12%.

On to `N=C(N)NCCC[C@H](NC(=O)[C@H](CCCCN)NC(=O)[C@H](CCCCN)NC(=O)Cc1ccccc1)C(N)=O` [inhibitor 27] (HELM PEPTIDE1{[O=C(Cc1ccccc1)[*:2]].K.K.R.[am]}$$$$V2.0), for which, at WNV NS2B-NS3 protease [2], the Ki turned out to be 2.47 µM. Also, the inhibition at 100 µM in experiment [3] is 20.8%.

As for `CN(CC(N)=O)C(=O)[C@H](CCCNC(=N)N)NC(=O)[C@H](CCCCN)NC(=O)[C@H](CCCCN)NC(=O)Cc1ccccc1` [inhibitor 24] (HELM PEPTIDE1{[O=C(Cc1ccccc1)[*:2]].K.K.R.[Sar].[am]}$$$$V2.0), the Ki on WNV NS2B-NS3 protease [2] was 50 µM. Also, the inhibition at 100 µM in experiment [3] was found to be 3.2%.

As to `N=C(N)NCCC[C@H](NC(=O)[C@H](CCCCN)NC(=O)[C@H](CCCCN)NC(=O)CC12CC3CC(CC(C3)C1)C2)C(N)=O` [inhibitor 43], at WNV NS2B-NS3 protease [2], the Ki is 13.8 µM. Further, the inhibition at 100 µM in experiment [3] was 24.2%.

The record behind these values is article PMC6445162, “Effects of NS2B-NS3 protease and furin inhibition on West Nile and Dengue virus replication” (Journal of Enzyme Inhibition and Medicinal Chemistry, 2017).
